Laboratory results published in PMC8538351 (Pharmaceuticals, 2021).
Read-outs that look alike come from different tables or passages of the source.

How the values were obtained:
[1] = Cytotoxicity by MTT assay in Vero E6 cells; assay type: cell-based, Green Monkey; conditions: green monkey, Vero E6 cells; Vero-E6, MTT, 48 h
Description: (§1) Cell monolayers were seeded in 96-well plates. The day after cells were treated with a wide range of compound concentrations and forty-eight hours later they were subjected to an MTT assays using standard procedures. The CC50 values were graphically interpolated from dose–response curves obtained with three biological replicates.

[2] = test system: retroviral vectors pseudotyped with SARS-CoV-2 Spike protein (SARS2pp); assay type: cell-based
SARS-CoV-2 [3] = assay: Combination treatment of PheoA with RMDV in Vero E6 cells, immunofluorescence microscopy; assay type: cell-based; conditions: Severe acute respiratory syndrome coronavirus 2, Vero C1008, 24 h, read-out: EC50 of individual treatment
Description: Thus, combination treatments were performed with increasing doses of PheoA and RMDV. Drugs were mixed in different proportions, combined with infectious SARS-CoV-2 (MOI = 0.01) and the mixtures were used to inoculate Vero E6 cells. Twenty-four hours later, cells were fixed and processed to determine the infection efficiency as using immunofluorescence microscopy. […] Increasing concentrations of PheoA improved RMDV efficacy and viceversa.
Synergy analysis was carried out in the web-based platform Synergy Finder (https://synergyfinder.fimm.fi/, accessed on 25 September 2021).

SARS-CoV-2 [4] = assay: Cytopathic effect protection assay (crystal violet) in Huh7-ACE2 cells; assay type: cell-based; conditions: Huh7-ACE2, 72 h
Description: To confirm the antiviral potential of PheoA, a commercially available PheoA stock solution was serially diluted and mixed with a virus stock to inoculate Vero E6 and Huh7-ACE2 cells (human hepatoma cells expressing ACE2). Cells were fixed 72 h post-inoculation and stained with crystal violet to visualize the integrity of the cell monolayer.
(§2) Vero E6 or Huh7-ACE2 cell monolayers were inoculated (MOI = 0.001) in the presence of a wide range of two-fold dilutions of the crude, or partially purified extracts, or pure compounds and incubated for 72 h. Cytopathic effect and lack thereof was visualized by crystal violet staining, as previously described. Untreated and solvent-treated cells were included in each plate as controls. […] A minimum virus dose (10 infectious units/well; MOI 0.001 in 1e4 cells/well) capable of producing overt cytopathic effect was used. Lower virus doses produce visible plaques and complete absence of CPE coincides with the expected endpoint dilution, around 8-fold lower dilutions.

SARS-CoV-2 virions = assay: Virucidal assay: pre-incubation of virions, residual infectivity titer by TCID50; assay type: cell-based; conditions: for virus infectivity after pre-incubation (in words): 340 nM
Huh7 cells = conditions: Huh7, 48 h
SARS-CoV-2 [5] = assay: Extracellular viral RNA load by RT-qPCR in A549-ACE2 cells; assay type: cell-based; conditions: A549-ACE2, 48 h
[6] = Cytotoxicity by MTT assay in A549-ACE2 cells; assay type: cell-based; conditions: human
Description: as §1

SARS-CoV-2 [7] = assay: Antiviral activity by immunofluorescence microscopy, summary for Vero E6, A549-ACE2 and Calu3; assay type: cell-based; conditions: Severe acute respiratory syndrome coronavirus 2, all tested cell lines
Description: (§3) PheoA antiviral activity was further confirmed by immunofluorescence microscopy–to estimate virus propagation–and an MTT assay–to evaluate compound cytotoxicity. […] This dataset was used to determine effective concentrations (EC50 and EC90) and cytotoxicity indexes. The estimated EC50 and EC90 values were around 50 nM and 100 nM, respectively, with a wide therapeutic window in all tested cell lines (Table 1)
(§4) Vero E6, A549-ACE2 or Calu3 were seeded onto 96-well plates as described above and infected in the presence of the indicated compound dose (MOI = 0.01). Twenty-four hours post infection (48 h for Calu3 cells), cells were fixed for 20 min at room temperature with a 4% formaldehyde solution in PBS, washed twice with PBS and incubated with incubation buffer (3% BSA; 0.3% Triton X100 in PBS) for 1 h. A monoclonal antibody against the N protein was diluted in the incubation buffer (1:2000, v/v; Genetex HL344) and incubated with the cells for 1 h; after this time, cells were washed with PBS and subsequently incubated with a 1:500 (v/v) dilution of a goat anti-rabbit conjugated to Alexa 488 (Invitrogen-Carlsbad, Carlsbad, CA, USA). Nuclei were stained with DAPI (Life Technologies, Budapest, Hungary) as recommended by the manufacturer during the secondary antibody incubation. Cells were washed with PBS and imaged using an automated multimode reader Spark Cyto (TECAN-Grödig, Austria).

SARS-CoV-2 [8] = assay: Antiviral activity by immunofluorescence microscopy in Vero E6 cells; assay type: cell-based; conditions: for EC50: Severe acute respiratory syndrome coronavirus 2, Vero C1008, 48 h
Description: as §4
(§5) All the infection experiments were performed by mixing the virus and compound dilutions 1:1 (v/v) before addition to the target cells. In the time-of-addition experiments, Vero E6 cultures were inoculated (MOI from 0.5–1) for 1 h in the presence or absence of the compounds at 37 °C. Subsequently, virus-compound mixtures were left at all times, or removed and replaced with fresh 2% FBS complete media containing or not the tested compounds (see experimental scheme in Figure 7 for details). Cells were fixed 6 h post-inoculation.
(§6) Descriptive statistics were calculated using Microsoft Excel. One-way ANOVA and post hoc tests were calculated using IBM SPSS Software Package (version 26). EC50 and EC90 values were obtained employing the PROBIT regression method using IBM SPSS vs26, except for values in Table 1 that were calculated by graphic interpolation of individual curves.

[9] = test system: vesicular stomatitis virus (VSV-GFP); assay: microbe, parasite or virus in culture; assay type: cell-based; conditions: Huh-7
[10] = test system: Vero E6, A549-ACE2 and Calu3 cells; assay: Cytotoxicity by MTT assay, summary for Vero E6, A549-ACE2 and Calu3; assay type: cell-based; conditions: all three models, assayed doses
Description: as §3, §1

HCV = assay: microbe, parasite or virus in culture; assay type: cell-based; conditions: Hepatitis C virus, Huh-7, 48 h
[11] = test system: vesicular stomatitis virus (VSV-GFP); assay: microbe, parasite or virus in culture; assay type: cell-based; conditions: A549-ACE2
SARS-CoV-2 [12] = assay: Cytopathic effect protection assay (crystal violet) in Vero E6 cells; assay type: cell-based; conditions: Vero E6, 72 h
Description: In order to explore for the presence of anti-SARS-CoV-2 metabolites in M. polymorpha, we prepared crude extracts of two different M. polymorpha subspecies (subsp. ruderalis from Japan and subsp. polymorpha, from Spain). The anti-SARS-CoV-2 activity of the resulting crude extracts was tested in Vero E6 cell monolayers infected with the SARS-CoV-2 NL2020 strain (Figure 1A). Infection was carried out at a multiplicity of infection (MOI) of 0.001 for 72 h. In the absence of antiviral activity, SARS-CoV-2 infection triggers cell death of Vero E6 cells and results in loss of cell biomass in the well, which is readily visualized as a strong reduction in crystal violet staining (DMSO, Figure 1A). […] Thus, protective activity may be used as a rapid qualitative surrogate assay to facilitate identification of substances with antiviral potential.
as §2, with “Lower virus doses produce visible plaques and complete absence of CPE coincides with the expected endpoint dilution, around 8-fold lower dilutions.” left out

[13] = test system: retroviral vectors pseudotyped with VSV glycoprotein (VSVpp); assay type: cell-based
hCoV-229E = assay: microbe, parasite or virus in culture; assay type: cell-based; conditions: Human coronavirus 229E, Huh-7, 48 h
SARS-CoV-2 [14] = assay: Antiviral activity by immunofluorescence microscopy in A549-ACE2 cells; assay type: cell-based; conditions: A549-ACE2, MOI 0.01, 48 h; for EC50: Severe acute respiratory syndrome coronavirus 2, A549-ACE2, 48 h
Description: as §4, §5, §6

SARS-CoV-2 [15] = assay: Time-of-addition experiment in Vero E6 cells (single-cycle infection); assay type: cell-based; conditions: for efficacy when added during the virus entry phase (in words): versus maintained at all times
Description: Next, antiviral efficacy of PheoA was compared when PheoA was (i) present at all times, (ii) added only during virus inoculation, or (iii) added only after virions had effectively penetrated the cells in single-cycle infection experiments ([…]).
as §5

[16] = Cytotoxicity by MTT assay in Calu3 cells; assay type: cell-based; conditions: human
Description: as §1

SARS-CoV-2 [17] = assay: Antiviral activity by immunofluorescence microscopy in Calu3 cells; assay type: cell-based; conditions: Calu3, MOI 0.005, 48 h; for EC50: Severe acute respiratory syndrome coronavirus 2, Calu-3, 48 h
Description: as §4, §5, §6

West Nile Virus = assay: microbe, parasite or virus in culture; assay type: cell-based; conditions: Huh-7, 48 h
SARS-CoV-2 [18] = assay: Viral RNA load by RT-qPCR in Vero E6 cells; assay type: cell-based; conditions: 25 µM, Vero E6, MOI 0.001, 72 h post infection
SARS-CoV-2 [19] = conditions: monolayers protected down to this concentration; read-out: reported EC50; cited from earlier work
Vero E6 cells = assay: Cytotoxicity by MTT assay in Vero E6 cells; assay type: cell-based, Green Monkey; conditions: Vero E6, MTT, parallel cultures
Description: as §1

[20] = mean ± SD n = 3, graphic interpolation
[21] = Vero E6, MOI 0.005, 48 h, PROBIT regression

Structure (SMILES): C=Cc1c(C)c2cc3nc(c4c5[nH]c(cc6nc(cc1[nH]2)C(C)=C6CC)c(C)c5C(=O)[C@@H]4C(=O)OC)[C@@H](CCC(=O)O)[C@@H]3C [PheoA, Pheophorbide a]
- CC50 at 48 h [1]: > 8420 nM
- maximum reduction of infection efficiency ([2]; maximum dose 675 nM, 48 h): ≤ 40%
- EC50 (SARS-CoV-2 [3]): 40 nM
- concentration with consistent protective capacity (SARS-CoV-2 [4]): above 65 nM
- virus infectivity after pre-incubation (in words) (SARS-CoV-2 virions; 30 min): reduced partially
- virus infectivity after pre-incubation (in words) (SARS-CoV-2 virions; 60 min): below detection limits
- virus infectivity after pre-incubation (in words) (SARS-CoV-2 virions; up to 15 min, room temperature): did not have any significant impact on virus infectivity
- dose giving statistically significant reduction in remaining virus infectivity (SARS-CoV-2 virions; 30 min pre-incubation, 10^5 TCID50/mL, room temperature): above 67 nM
- cytotoxicity (in words) (Huh7 cells): no cytotoxicity was observed
- viral RNA accumulation (in words) (SARS-CoV-2 [5]; increasing concentrations): reduced viral RNA accumulation in a dose-dependent manner
- CC50 at 48 h [6]: 2600 ± 500 nM
- EC50 (SARS-CoV-2 [7]; read-out: estimated EC50): ~50 nM
- EC90 (SARS-CoV-2 [7]; read-out: estimated EC90): ~100 nM
- EC50 (SARS-CoV-2 [8]; Vero-E6, MOI 0.005, 48 h, mean ± SD n = 3, graphic interpolation): 54 ± 13 nM
- EC90 (SARS-CoV-2 [8]; Severe acute respiratory syndrome coronavirus 2, Vero C1008, Vero-E6, MOI 0.005, 48 h, mean ± SD n = 3): 106 ± 16 nM
- EC50 [9]: 506 nM
- cytotoxicity (in words) [10]: no cytotoxicity was observed
- EC50 (HCV): 300 nM
- EC50 [11]: 578 nM
- concentration with consistent protective capacity (SARS-CoV-2 [12]): above 65 nM
- maximum reduction of infection efficiency [13]: ≤ 40%
- EC50 (hCoV-229E): 128 nM
- EC50 (SARS-CoV-2 [14]; [20]): 62 ± 25 nM
- EC90 (SARS-CoV-2 [14]; Severe acute respiratory syndrome coronavirus 2, mean ± SD n = 3): 201 ± 84 nM
- antiviral activity when maintained at all times (in words) (SARS-CoV-2 [15]; Vero E6, MOI 5, 6 h): expected antiviral activity
- efficacy when added during the virus entry phase (in words) (SARS-CoV-2 [15]; Vero E6, MOI 5, 6 h): nearly identical
- efficacy when added after virion internalization (SARS-CoV-2 [15]; Vero E6, MOI 5, fixed 6 h post-inoculation): ca. 6 % of the maximum efficacy
- CC50 at 48 h [16]: > 8420 nM
- EC50 (SARS-CoV-2 [17]; [20]): 35 ± 20 nM
- EC90 (SARS-CoV-2 [17]; Severe acute respiratory syndrome coronavirus 2, Calu-3, mean ± SD n = 3): 98 ± 8 nM
- EC50 (West Nile Virus): 64 nM

Structure (SMILES): CCC(CC)COC(=O)[C@H](C)N[P@](=O)(OC[C@H]1O[C@@](C#N)(c2ccc3c(N)ncnn23)[C@H](O)[C@@H]1O)Oc1ccccc1 [RMDV, Remdesivir]
- EC50 (SARS-CoV-2 [3]): 2000 nM
- reduction of extracellular viral RNA (SARS-CoV-2 [5]; 5 µM): two orders of magnitude
- viral RNA load (SARS-CoV-2 [18]): undetectable
- antiviral activity when maintained at all times (in words) (SARS-CoV-2 [15]; Vero E6, MOI 5, 6 h): highly effective at reducing infection efficiency
- EC50 (SARS-CoV-2 [19]): 1500 nM

Structure (SMILES): C=Cc1c(C)c2cc3nc(c4c5[nH]c(cc6nc(cc1[nH]2)C(C)=C6CC)c(C)c5C(=O)[C@@H]4C(=O)OC)[C@@H](CCC(=O)O)[C@@H]3C [Semi-synthetic PheoA, Pheophorbide a]
- EC50 (SARS-CoV-2 [8]; [21]): 51 nM
- EC50 (SARS-CoV-2 [14]; PROBIT regression): 74 nM
- EC50 (SARS-CoV-2 [17]; PROBIT regression): 38 nM

Structure (SMILES): Cc1ccc(NC(=O)c2ccc(CN3CCN(C)CC3)cc2)cc1Nc1nccc(-c2cccnc2)n1 [imatinib, Imatinib]
- entry inhibition (in words) ([2]; 15 µM): selectively inhibited SARS2pp
- entry inhibition (in words) ([13]; 15 µM): not VSVpp entry
- efficacy when added after virion internalization (in words) (SARS-CoV-2 [15]; 15 µM, Vero E6, MOI 5, 6 h): greatly lost efficacy
- antiviral activity when maintained at all times (in words) (SARS-CoV-2 [15]; Vero E6, MOI 5, 6 h): expected antiviral activity
- efficacy when added during the virus entry phase (in words) (SARS-CoV-2 [15]; Vero E6, MOI 5, 6 h): comparable efficacy

Structure (SMILES): C=Cc1c(C)c2cc3nc(c4c5[nH]c(cc6nc(cc1[nH]2)C(C)=C6CC)c(C)c5C(=O)C4)[C@@H](CCC(=O)O)[C@@H]3C [pPheoA, pyropheophorbide a]
- cytotoxicity (in words) (Vero E6 cells): absence of measurable cytotoxicity
- EC50 (SARS-CoV-2 [8]; [21]): 185 nM
